Assay [1] concerns the target T1, Nucleotide-binding oligomerization domain-containing protein 1 (Homo sapiens, UniProt Q9Y239).
T1 sequence (Q9Y239 whole entry): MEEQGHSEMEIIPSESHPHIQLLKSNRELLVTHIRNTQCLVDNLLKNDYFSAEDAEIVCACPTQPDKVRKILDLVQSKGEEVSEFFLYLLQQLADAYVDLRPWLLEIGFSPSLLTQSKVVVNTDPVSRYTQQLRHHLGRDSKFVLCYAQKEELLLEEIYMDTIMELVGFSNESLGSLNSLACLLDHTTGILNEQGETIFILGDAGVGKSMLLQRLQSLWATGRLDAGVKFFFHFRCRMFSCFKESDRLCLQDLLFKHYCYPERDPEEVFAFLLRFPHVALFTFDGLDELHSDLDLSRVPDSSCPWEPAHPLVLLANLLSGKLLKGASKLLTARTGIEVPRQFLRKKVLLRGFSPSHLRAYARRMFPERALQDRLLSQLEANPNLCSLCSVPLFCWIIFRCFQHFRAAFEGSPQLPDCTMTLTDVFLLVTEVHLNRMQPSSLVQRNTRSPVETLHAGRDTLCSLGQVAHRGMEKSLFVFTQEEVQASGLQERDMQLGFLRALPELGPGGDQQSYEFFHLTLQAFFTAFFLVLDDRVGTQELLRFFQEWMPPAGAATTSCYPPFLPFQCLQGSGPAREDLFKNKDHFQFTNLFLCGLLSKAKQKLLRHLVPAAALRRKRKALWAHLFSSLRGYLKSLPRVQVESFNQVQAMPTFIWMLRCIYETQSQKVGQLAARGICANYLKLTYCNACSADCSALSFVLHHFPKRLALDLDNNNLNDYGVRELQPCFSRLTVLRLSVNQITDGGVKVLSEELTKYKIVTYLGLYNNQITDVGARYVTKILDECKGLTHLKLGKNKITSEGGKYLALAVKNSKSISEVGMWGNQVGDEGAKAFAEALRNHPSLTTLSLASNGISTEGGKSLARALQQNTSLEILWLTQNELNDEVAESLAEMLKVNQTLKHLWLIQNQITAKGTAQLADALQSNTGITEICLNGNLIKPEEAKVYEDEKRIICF
The assay is described as follows: Antagonist activity at NOD1 in HEK-Blue hNOD1 cells assessed as inhibition of C12-iE-DAP-induced NFkappaB activation-mediated SEAP release preincubated for 3 hrs followed by C12-iE-DAP addition and measured after 20 hrs by spectrophotometric method. In kind it is cell-based.

Assay [2] has as its target T2, Nucleotide-binding oligomerization domain-containing protein 1 (Homo sapiens) (UniProt Q9Y239).
T2 sequence (whole entry): T1 sequence (Q9Y239 whole entry)
The assay is described as follows: Antagonist activity at NOD1 in HEK-Blue hNOD1 cells assessed as inhibition of C12-iE-DAP-induced NFkappaB activation-mediated SEAP release at 5 uM preincubated for 3 hrs followed by C12-iE-DAP addition and measured after 20 hrs by spectrophotometric method relative to control. The note with it: time 23.0 hrs. In kind it is cell-based.

Data on 24 molecules can be found in ChEMBL document CHEMBL4706575, “Nonpeptidic quinazolinone derivatives as dual nucleotide-binding oligomerization domain-like receptor 1/2 antagonists for adjuvant cancer chemotherapy” (Eur J Med Chem, 2020).

With `COC(=O)Cn1cnc2cc(C(=O)NCCCc3ccc(Cl)cc3)c(-c3cccc(F)c3)cc2c1=O`, the IC50 in assay [1] was 3.24 µM. Besides, the inhibition in assay [2] (filed as antagonist) was 65.3%.

As for `COC(=O)Cn1cnc2cc(NC(=O)CCCOc3ccc(F)cc3)c(Oc3cccc(N(C)C)c3)cc2c1=O`, the inhibition in assay [2] is 33.5%. On to `COC(=O)Cn1cnc2cc(C(=O)NCCOCc3ccc(C(F)(F)F)cc3)c(-c3cccc(Cl)c3)cc2c1=O`, for which the IC50 in assay [1] is 1.12 µM. For the same molecule, the inhibition in assay [2] (filed as antagonist) stood at 82.4%. With `COC(=O)Cn1cnc2cc(NC(=O)c3ccc(C(F)(F)F)cc3)c(Oc3cccc(N(C)C)c3)cc2c1=O`, the inhibition in assay [2] was 31.7%. On to `COC(=O)Cn1cnc2cc(NC(=O)COCc3ccc(C(F)(F)F)cc3)c(Oc3ccccc3N(C)C)cc2c1=O`, for which the half-inhibitory concentration (IC50) in assay [1] turned out to be 1.65 µM. Also, in assay [2] (filed as antagonist), the inhibition is 87.9%. For `O=C(NCCOCc1ccc(C(F)(F)F)cc1)c1cc2nc[nH]c(=O)c2cc1-c1cccc(C(F)(F)F)c1`, the half-maximal inhibitory concentration (IC50) in assay [1] came out at 4.39 µM. For the same molecule, in assay [2] (filed as antagonist), the inhibition was 72.4%. With `COC(=O)Cn1cnc2cc(NC(=O)c3ccc(C#N)cc3)c(Oc3cccc(N(C)C)c3)cc2c1=O`, the inhibition in assay [2] is 13.1%.

In the case of `O=C(NCCCc1ccc(Cl)cc1)c1cc2nc[nH]c(=O)c2cc1-c1cccc(Cl)c1`, in assay [2] (filed as antagonist), the inhibition stood at 41.5%. As to `O=C(NCCOCc1ccc(C(F)(F)F)cc1)c1cc2nc[nH]c(=O)c2cc1-c1cccc(F)c1`, the IC50 in assay [1] came to 4.11 µM. In addition, the inhibition in assay [2] (filed as antagonist) came to 56.1%. Consider `O=C(NCCCc1ccc(Cl)cc1)c1cc2nc[nH]c(=O)c2cc1-c1cccc(F)c1`, for which the inhibition in assay [2] (filed as antagonist) was determined as 43.5%. Turning to `O=C(NCCCc1ccccc1)c1cc2nc[nH]c(=O)c2cc1-c1cccc(F)c1`, the inhibition in assay [2] is -1.81%.

Turning to `O=C(NCCCc1ccccc1)c1cc2nc[nH]c(=O)c2cc1-c1cccc(Cl)c1`, in assay [2], the inhibition stood at 6.6%. For the molecule `COC(=O)Cn1cnc2cc(C(=O)NCCCc3ccc(Cl)cc3)c(-c3cccc(Cl)c3)cc2c1=O`, the IC50 in assay [1] came to 1.64 µM. Further, the inhibition in assay [2] (filed as antagonist) amounted to 58.2%. As for `COC(=O)Cn1cnc2cc(NC(=O)CCCOc3ccc(C#N)cc3)c(Oc3cccc(N(C)C)c3)cc2c1=O`, the inhibition in assay [2] (filed as antagonist) was 48%. `O=C(COCc1ccc(C(F)(F)F)cc1)Nc1cc2nc[nH]c(=O)c2cc1Oc1cccc(N2CCOCC2)c1`: the inhibition in assay [2] was determined as 37.6%.

Regarding `COC(=O)Cn1cnc2cc(C(=O)NCCOCc3ccc(C(F)(F)F)cc3)c(-c3cccc(F)c3)cc2c1=O`, the IC50 in assay [1] is 3.46 µM. Further, in assay [2] (filed as antagonist), the inhibition came to 64%.

With `COC(=O)Cn1cnc2cc(NC(=O)COCc3ccc(Cl)cc3)c(Oc3cccc(N(C)C)c3)cc2c1=O`, the IC50 in assay [1] worked out at 4.31 µM. Besides, the inhibition in assay [2] (filed as antagonist) was determined as 69%.

`COC(=O)Cn1cnc2cc(NC(=O)CCCOc3ccc(C(F)(F)F)cc3)c(Oc3ccccc3)cc2c1=O`: the inhibition in assay [2] was 28.2%.

Regarding `O=C(NCCCc1ccc(Cl)cc1)c1cc2nc[nH]c(=O)c2cc1-c1cccc(C(F)(F)F)c1`, the inhibition in assay [2] worked out at 35%. Same read-out and setting: the value for `O=C(NCCCc1ccccc1)c1cc2nc[nH]c(=O)c2cc1-c1cccc(C(F)(F)F)c1` was 4.06%. In the case of `COC(=O)Cn1cnc2cc(NC(=O)CCCOc3ccc(C(F)(F)F)cc3)c(Oc3cccc(N(C)C)c3)cc2c1=O`, in assay [1], the IC50 is 2.65 µM. Besides, in assay [2] (filed as antagonist), the inhibition came to 70.9%.

Consider `COC(=O)Cn1cnc2cc(NC(=O)COCc3ccc(C(F)(F)F)cc3)c(Oc3ccccc3)cc2c1=O`, for which the inhibition in assay [2] (filed as antagonist) was found to be 50.2%. In the case of `COC(=O)Cn1cnc2cc(C(=O)NCCCc3ccccc3)c(-c3cccc(F)c3)cc2c1=O`, the inhibition in assay [2] is -0.98%. As for `COC(=O)Cn1cnc2cc(NC(=O)CCCOc3ccc(C(F)(F)F)cc3)c(Oc3ccc(N(C)C)cc3)cc2c1=O`, the half-inhibitory concentration (IC50) in assay [1] turned out to be 3.87 µM. Moreover, in assay [2] (filed as antagonist), the inhibition worked out at 68.4%.

What is called IC50 is the concentration at which inhibition is half-maximal. Usually inhibition stands for the change of the read-out against control, counted positive when it falls.
